Results on six compounds are retold here after patent EP4813463A2, “TYK2 INHIBITORS AND COMPOSITIONS AND METHODS THEREOF” (Lynk Pharmaceuticals Co. Ltd., priority 2023, dated 2024).

One series addresses T1, JAK1 (Homo sapiens, UniProt P23458).
T1 construct: purchased Carna Biosciences
Kind of series: JAK1 kinase activity, microfluidic assay (Caliper EZ Reader II, FAM labeled peptide substrate). In kind it is biochemical. Particulars: JAK1 10 nM, 1 mM ATP. Here is the method:
(§1) Testing for JAK1, JAK2 and TYK2 Kinase Activities
(§2) JAK activity was determined in the reaction buffer 50 mM HEPES, 0.01% Brij35, 10 mM MgCl2, 2 mM DTT by a microfluidic assay. The phosphorylation of a FAM labeled peptide substrate was monitored in the Caliper EZ Reader II (Perkin Elmer). The assay condition for each batch of enzyme (Carna Biosciences) was optimized to obtain 10% conversion rate of peptide substrate.
(§3) The test compounds were dissolved in DMSO to a stock concentration of 10 mM. Three-fold serially diluted compounds with top concentration of 5 µM were pre-incubated with JAK1, JAK2 or TYK2 for 10 min at ambient temperature. The final DMSO concentration of assay mixture was 1%. […] The reaction was stopped by adding 50 mM EDTA.
(§4) And the well without compound but with equivalent DMSO was defined as no inhibition. The percent inhibition was calculated by the following formula: % Inhibition = (Conversion%_max−Conversion%_sample)/(Conversion%_max−Conversion%_min) × 100 [formula] wherein • Conversion%_ max = the conversion rate in the positive well without addition of compound • Conversion%_ sample = the conversion rate of test compounds • Conversion%_ min = the conversion rate in the well without addition of enzyme
(§5) The dose-response (percent inhibition) curve was plotted and IC50 values were determined by GraphPad software. The IC50 values of tested compounds were list in Table 3. Table 3. JAK1, JAK2 and TYK2 IC50 Values of Illustrative Compounds

Series [1] in a line: Microsomal metabolic stability assay. In kind it is in vitro ADME. Particulars: human, liver microsomes, pH 7.4, 0.5 mg/mL microsomal protein, 1 µM test article, 2 mM NADPH; for microsomal CLint at 1 µM: read-out: Human LM Clint; for half-life at 1 µM: read-out: Human LM T1/2. An outline of the steps:
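Test or control compound (1 µM) incubated with microsomes (0.5 mg/mL protein) in 100 mM potassium phosphate pH 7.4, 1.0 mM EDTA at 37°C, started with NADPH regenerating system (2 mM NADPH). Sampled at 0, 5, 15, 30, 45 min, acetonitrile-quenched, LC/MS/MS. T1/2 from ln %remaining vs time slope; CLint = 0.693/T1/2 per mg protein/mL.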

The target of the next series is T2, TYK2 (Homo sapiens, UniProt P29597).
T2 construct: purchased Carna Biosciences
T2 sequence (P29597 897-1176 limits assumed): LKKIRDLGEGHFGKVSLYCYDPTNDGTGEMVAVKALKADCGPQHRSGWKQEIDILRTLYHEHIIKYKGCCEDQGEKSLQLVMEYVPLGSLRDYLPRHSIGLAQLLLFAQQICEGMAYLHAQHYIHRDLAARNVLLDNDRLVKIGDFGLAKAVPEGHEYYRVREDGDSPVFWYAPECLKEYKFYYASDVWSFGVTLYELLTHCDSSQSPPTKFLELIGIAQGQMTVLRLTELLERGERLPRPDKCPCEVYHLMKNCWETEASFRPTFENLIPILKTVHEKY
Kind of series: TYK2 kinase activity, microfluidic assay (Caliper EZ Reader II, FAM labeled peptide substrate). In kind it is biochemical. To be noted: TYK2 20 nM, 1 mM ATP. Here is the method: as §1, §2, §3, §4, §5

The nature of the next series: Caco-2 cell permeability. Particulars: human, Caco-2, 10.0 µM, no p-gp inhibitor; for Papp A→B at 90 min, 10 µM: A to B; for Papp B→A at 90 min, 10 µM: B to A; for efflux ratio at 90 min, 10 µM: read-out: Efflux Ratio: Papp(B-A)/Papp(A-B). It counts as in vitro ADME. Here is the method:
Compounds permeability was evaluated using Caco-2 cell lines. HBSS buffer was used as transfer buffer. Appropriate dosing and receiver solutions were applied to the donor and receiver chambers to initiate the transport assay in apical to basolateral (A to B) or basolateral to apical (B to A) directions. Compounds were tested at 10.0 µM in the absence of p-gp inhibitor bidirectionally in duplicates. After incubation at 37°C for 90 mins, donor and receiver samples were analyzed by LC-MS/MS. The intestinal absorption potential was assessed using Papp value and efflux ratio.

T1 sequence (P23458 875-1153 limits assumed): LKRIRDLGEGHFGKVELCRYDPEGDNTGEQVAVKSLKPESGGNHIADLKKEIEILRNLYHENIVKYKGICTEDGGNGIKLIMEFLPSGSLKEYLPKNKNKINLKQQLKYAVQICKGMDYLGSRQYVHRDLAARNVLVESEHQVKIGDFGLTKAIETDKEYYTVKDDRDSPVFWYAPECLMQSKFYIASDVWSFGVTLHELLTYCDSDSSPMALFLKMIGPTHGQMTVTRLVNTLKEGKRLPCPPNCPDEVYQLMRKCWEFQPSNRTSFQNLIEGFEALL

At JAK1, `[2H]C([2H])([2H])NC(=O)c1cnc(NC(=O)C2CC2)cc1Nc1cnn2ccc([C@@H](O)C(F)(F)F)c(OC)c12` [Example 7B, (R)-6-(cyclopropanecarboxamido)-4-((4-methoxy-5-(2,2,2-trifluoro-1-hydroxyethyl)pyrazolo[1,5-a]pyridin-3-yl)amino)-N-(methyl-d3)nicotinamide] showed an IC50 of over 20 µM. In series [1], the microsomal CLint at 1 µM turned out to be 10.8 µL/min/mg and the half-life at 1 µM was 2.14 h. The compound also gave a concentration for half-maximal inhibition (IC50) on TYK2 of over 20 µM.

With `[2H]C([2H])([2H])NC(=O)c1cnc(Nc2ccn(C)n2)cc1Nc1cnn2ccc([C@H](O)C(F)(F)F)c(OC)c12` [Example 21, (S)-4-((4-methoxy-5-(2,2,2-trifluoro-1-hydroxyethyl)pyrazolo[1,5-a]pyridin-3-yl)amino)-N-(methyl-d3)-6-((1-methyl-1H-pyrazol-3-yl)amino)nicotinamide], at JAK1, the half-inhibitory concentration (IC50) is over 20 µM. In series [1], the microsomal CLint at 1 µM stood at 22.8 µL/min/mg and the half-life at 1 µM worked out at 1.01 h. In addition, in the series “Caco-2 cell permeability”, the Papp A→B at 90 min, 10 µM was 0.71 ×10⁻⁶ cm/s; the basolateral-to-apical permeability (Papp B→A) at 90 min, 10 µM worked out at 47.4 ×10⁻⁶ cm/s; the efflux ratio at 90 min, 10 µM was determined as 67. The compound also returned a 50% inhibitory concentration (IC50) on TYK2 of over 20 µM.

On to `[2H]C([2H])([2H])NC(=O)c1cnc(Nc2cc(C)nc(C)n2)cc1Nc1cnn2ccc([C@H](O)C(F)(F)F)c(OC)c12` [Example 25, (S)-6-((2,6-Dimethylpyrimidin-4-yl)amino)-4-((4-methoxy-5-(2,2,2-trifluoro-1-hydroxyethyl)pyrazolo[1,5-a]pyridin-3-yl)amino)-N-(methyl-d3)nicotinamide], for which the IC50 on JAK1 was over 20 µM. Besides, in “Caco-2 cell permeability”, the Papp A→B at 90 min, 10 µM turned out to be 2.57 ×10⁻⁶ cm/s; the Papp B→A at 90 min, 10 µM turned out to be 62.3 ×10⁻⁶ cm/s; the efflux ratio at 90 min, 10 µM is 24.2. The compound further had an IC50 against TYK2 of over 20 µM.

On to `[2H]C([2H])([2H])NC(=O)c1cnc(NC(=O)C2CC2)cc1Nc1cnn2ccc([C@H](OC)C(F)(F)F)c(OC)c12` [Example 27, (S)-6-(cyclopropanecarboxamido)-4-((4-methoxy-5-(2,2,2-trifluoro-1-methoxyethyl)pyrazolo[1,5-a]pyridin-3-yl)amino)-N-(methyl-d3)nicotinamide], for which the IC50 against JAK1 and against TYK2 was over 20 µM in each case.

The compound `[2H]C([2H])([2H])NC(=O)c1nnc(NC(=O)C2CC2)cc1Nc1cnn2ccc([C@H](O)C(F)(F)F)c(OC)c12` [Example 30, (S)-6-(cyclopropanecarboxamido)-4-((4-methoxy-5-(2,2,2-trifluoro-1-hydroxyethyl)pyrazolo[1,5-a]pyridin-3-yl)amino)-N-(methyl-d3)pyridazine-3-carboxamide] had an IC50 against JAK1 of over 20 µM. For the same compound, in series [1], the microsomal CLint at 1 µM is 17 µL/min/mg and the half-life at 1 µM stood at 1.36 h. The compound further returned an IC50 against TYK2 of over 20 µM.

`[2H]C([2H])([2H])NC(=O)c1cnc(NC(=O)C2CC2)cc1Nc1nn(C)c2ccc([C@H](OC([2H])([2H])[2H])C(F)(F)F)c(OC)c12` [Example 55A, (S)-6-(cyclopropanecarboxamido)-4-((4-methoxy-1-methyl-5-(2,2,2-trifluoro-1-(methoxy-d3)ethyl)-1H-indazol-3-yl)amino)-N-(methyl-d3)nicotinamide]: the IC50 at JAK1 and on TYK2 was over 5 µM in each case.
